These results are taken from patent US20260365653A1, “IRREVERSIBLE MUTEGFR INHIBITORS” (Bayer Aktiengesellschaft, priority 2022, published 2026).

The test system of one test is BA/F3 (insSVD) cells. Description: Ba/F3-EGFR-insSVD cell survival assay (Cell Titer-Glo). It is filed as cell-based. The procedure, abridged: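 Ba/F3 cells stably expressing retroviral EGFR-insSVD or insSVD T790M, grown without IL-3 on 10 ng/ml EGF, 4000 cells/well. Compound pinned in, 48 h at 37° C. Viability by CellTiter-Glo luminescence.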
Background: Cellular ATP, detected with luciferase, serves as a proxy for viable cell number.

For test [1], the target named is T1, mutEGFR (D770_N771insSVD) (Homo sapiens, UniProt P00533, DUP768-770).
T1 construct: GST-EGFR #3 (SVD between D770 and N771); made in house; host or cells: Sf9 insect cells (baculovirus)
T1 sequence (P00533 with tags, fused parts or gaps DUP768-770): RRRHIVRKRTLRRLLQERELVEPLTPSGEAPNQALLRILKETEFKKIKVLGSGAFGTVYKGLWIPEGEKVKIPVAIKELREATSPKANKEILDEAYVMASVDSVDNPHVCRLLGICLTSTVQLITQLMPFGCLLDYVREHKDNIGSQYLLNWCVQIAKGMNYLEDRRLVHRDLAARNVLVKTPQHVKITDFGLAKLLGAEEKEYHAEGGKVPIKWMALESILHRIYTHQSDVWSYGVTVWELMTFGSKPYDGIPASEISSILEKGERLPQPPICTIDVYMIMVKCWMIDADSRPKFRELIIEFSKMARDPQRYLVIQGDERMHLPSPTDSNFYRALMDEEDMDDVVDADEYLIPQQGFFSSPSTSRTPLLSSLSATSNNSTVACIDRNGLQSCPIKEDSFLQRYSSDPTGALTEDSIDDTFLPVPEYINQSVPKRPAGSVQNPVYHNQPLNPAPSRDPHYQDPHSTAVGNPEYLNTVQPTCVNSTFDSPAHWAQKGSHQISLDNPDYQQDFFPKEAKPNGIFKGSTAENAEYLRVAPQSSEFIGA
Description: Exon20-Mutant-EGFR (D770_N771insSVD) kinase assay (TR-FRET). Format: biochemical. On the technique in general: Time-resolved FRET reads energy transfer from a long-lived donor to a nearby acceptor.

Test [2] concerns the target T2, mutEGFR (D770_N771insNPG, T790) (Homo sapiens, UniProt P00533, INS770NPG/T790M).
T2 construct: exact insNPG construct not described; in-house EGFR proteins were N-terminal GST fusions from baculovirus/insect cells (borders R669-A1210 given only for WT, insSVD, insASV)
Put plainly: mutEGFR (D770_N771insNPG, T790) kinase assay. Format: biochemical. From the text: The different EGFR proteins used in the biochemical kinase activity inhibition assays were generated inhouse by expression in insect cells using Baculo Virus system and subsequent purification as described in the following paragraphs.
The cDNAs encoding the various protein sequences from human EGFR human (P00533) were optimized for expression in eukaryotic cells and synthesized by the GeneArt Technology at Life Technologies.

Where [3] appears, read: Mus musculus, BaF3, 48 h, Table 3a, cell survival, Cell Titer-Glo, with 10 ng/ml EGF, without IL-3.
Setting [4] is: mutEGFR (D770_N771insSVD) kinase assay IC50, Table 2a, D770_N771insSVD, 2 mM ATP.
The mark [5] stands for this setting: Mus musculus, BaF3, 48 h, Table 3b, Ba/F3 EGFR-insSVD.
Where [6] appears, read: mutEGFR (D770_N771insSVD) kinase assay IC50, Table 2b (from US Priority Patent Application), mutEGFR D770_N771insSVD.

pIC50: −log10 of the molar value.

T2 sequence (P00533 with tags, fused parts or gaps INS770NPG/T790M limits assumed): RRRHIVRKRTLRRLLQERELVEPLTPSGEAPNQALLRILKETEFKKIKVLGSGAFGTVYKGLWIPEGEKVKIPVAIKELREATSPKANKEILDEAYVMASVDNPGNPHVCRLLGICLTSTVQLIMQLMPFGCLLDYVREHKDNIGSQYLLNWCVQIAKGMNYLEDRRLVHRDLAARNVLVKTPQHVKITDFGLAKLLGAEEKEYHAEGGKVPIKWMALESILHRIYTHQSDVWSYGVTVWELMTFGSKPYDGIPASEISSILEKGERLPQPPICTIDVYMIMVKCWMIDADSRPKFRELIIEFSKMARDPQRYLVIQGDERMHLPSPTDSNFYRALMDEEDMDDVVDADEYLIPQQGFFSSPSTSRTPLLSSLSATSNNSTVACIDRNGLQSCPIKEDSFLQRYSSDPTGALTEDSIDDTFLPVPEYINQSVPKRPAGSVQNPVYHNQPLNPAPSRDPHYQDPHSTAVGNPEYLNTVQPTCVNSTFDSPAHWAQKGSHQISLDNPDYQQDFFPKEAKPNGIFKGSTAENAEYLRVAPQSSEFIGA

A word on the pIC50: it is −log10 of the IC50, conventionally taken in molar units. The low end stands for a high IC50, the high end for a low IC50. For `C=CC(=O)N1CCn2nc(-c3cc(Cl)ccc3F)c(-c3ccncc3)c2C1` [Example 132, 1-[2-(5-chloro-2-fluorophenyl)-3-(pyridin-4-yl)-6,7-dihydropyrazolo[1,5-a]pyrazin-5(4H)-yl]prop-2-en-1-one], the pIC50 was 7.35 in the test on BA/F3 (insSVD) cells (setting [3]); 9.02 in test [1] (setting [4]); 8.88 in test [2] (Table 2a, D770_N771insNPG).
On the same counts, the results for `CN(C)C/C=C/C(=O)N1Cc2c(-c3ccncc3)c(-c3ccc(F)cc3)nn2C(C)(C)C1` [Example 213, (2E)-4-(dimethylamino)-1-[2-(4-fluorophenyl)-7,7-dimethyl-3-(pyridin-4-yl)-6,7-dihydropyrazolo[1,5-a]pyrazin-5(4H)-yl]but-2-en-1-one] are 6.95, 9.04 and 8.49.
For `COc1ccccc1-c1nn2c(c1-c1ccncc1)CN(C(=O)/C=C/CN(C)C)CC2` [Example 28, (2E)-4-(dimethylamino)-1-[2-(2-methoxyphenyl)-3-(pyridin-4-yl)-6,7-dihydropyrazolo[1,5-a]pyrazin-5(4H)-yl]but-2-en-1-one] the same measures were 5.40, 7.15 and 7.45.
Take `COc1ccc(-c2nn3c(c2-c2ccncc2)CN(C(=O)/C=C/CN(C)C)CC3)cc1Cl` [Example 27, (2E)-1-[2-(3-chloro-4-methoxyphenyl)-3-(pyridin-4-yl)-6,7-dihydropyrazolo[1,5-a]pyrazin-5(4H)-yl]-4-(dimethylamino)but-2-en-1-one]: the pIC50 in the test on BA/F3 (insSVD) cells (setting [3]) was 6.17; in test [1] (setting [4]) it was 8.42; in test [2] (Table 2a, D770_N771insNPG), 8.52.
For `C=CC(=O)N1CCn2nc(-c3ccc(C(F)(F)F)cc3)c(-c3ccnc4[nH]ccc34)c2C1C` (single isomer, unassigned; isomer 2) [Example 247, 1-(4-methyl-3-(1H-pyrrolo[2,3-b]pyridin-4-yl)-2-(4-(trifluoromethyl)phenyl)-6,7-dihydropyrazolo[1,5-a]pyrazin-5(4H)-yl) prop-2-en-1-one (isomer 2)] the same measures were 6.87, 8.16 and 6.03.
For `C=CC(=O)N1CCn2nc(-c3ccc(OC)c(Cl)c3)c(-c3ccncc3)c2C1` [Example 38, 1-[2-(3-chloro-4-methoxyphenyl)-3-(pyridin-4-yl)-6,7-dihydropyrazolo[1,5-a]pyrazin-5(4H)-yl]prop-2-en-1-one] the same measures were 7.49, 9.26 and 9.31.
For `CN(C)C/C=C/C(=O)N1CCn2nc(-c3ccc(F)cc3)c(-c3ccnc(Nc4ccccc4)c3)c2C1` [Example 21, (2E)-1-[3-(2-anilinopyridin-4-yl)-2-(4-fluorophenyl)-6,7-dihydropyrazolo[1,5-a]pyrazin-5(4H)-yl]-4-(dimethylamino)but-2-en-1-one], the negative-log IC50 (pIC50) in the test with BA/F3 (insSVD) cells (setting [3]) was 7.00; in the test with BA/F3 (insSVD) cells (setting [5]), 7.00; in test [1] (setting [4]), 8.93; in test [1] (setting [6]), 8.93; in test [2] (Table 2a, D770_N771insNPG) it was 8.35.
As to `C=CC(=O)N1CCn2nc(-c3ccc(C#N)cc3)c(-c3ccncc3)c2C1` [Example 43, 4-[5-acryloyl-3-(pyridin-4-yl)-4,5,6,7-tetrahydropyrazolo[1,5-a]pyrazin-2-yl]benzonitrile], the pIC50 in the test with BA/F3 (insSVD) cells (setting [3]) is 6.88; in test [1] (setting [4]), 8.50; in test [2] (Table 2a, D770_N771insNPG) it was 7.73.
For `CC(C)(C)NC/C=C/C(=O)N1CCn2nc(-c3ccc(Cl)cc3)c(-c3ccncc3)c2C1` [Example 167, (2E)-4-(tert-butylamino)-1-[2-(4-chlorophenyl)-3-(pyridin-4-yl)-6,7-dihydropyrazolo[1,5-a]pyrazin-5(4H)-yl]but-2-en-1-one] the same measures were 7.45, 9.59 and 8.99.
As for `CCc1ccc(-c2nn3c(c2-c2ccncc2)CN(C(=O)/C=C/CN(C)C)CC3)cc1` [Example 158, (2E)-4-(dimethylamino)-1-[2-(4-ethylphenyl)-3-(pyridin-4-yl)-6,7-dihydropyrazolo[1,5-a]pyrazin-5(4H)-yl]but-2-en-1-one], the pIC50 is 6.32 in the test on BA/F3 (insSVD) cells (setting [3]); 8.30 in test [1] (setting [4]); 7.79 in test [2] (Table 2a, D770_N771insNPG).
As for `C=C(F)C(=O)N1Cc2c(-c3ccncc3)c(-c3ccc4ccsc4c3)nn2CC1C` (racemic) [Example 238, 1-[(RS)-2-(1-benzothiophen-6-yl)-6-methyl-3-(pyridin-4-yl)-6,7-dihydropyrazolo[1,5-a]pyrazin-5(4H)-yl]-2-fluoroprop-2-en-1-one], the pIC50 is 7.16 with BA/F3 (insSVD) cells (setting [3]); 8.80 in test [1] (setting [4]); 8.66 in test [2] (Table 2a, D770_N771insNPG).
For `C=CC(=O)N1CCn2nc(-c3ccc(C)cc3)c(-c3ccncc3)c2C1` [Example 138, 1-[2-(4-methylphenyl)-3-(pyridin-4-yl)-6,7-dihydropyrazolo[1,5-a]pyrazin-5(4H)-yl]prop-2-en-1-one] the same measures were 7.63, 9.01 and 8.53.
For the compound `C=CC(=O)N1C(C)c2c(-c3ccncc3)c(-c3ccc(Cl)cc3F)nn2C[C@@H]1C` (single isomer, unassigned; isomer 1) [Example 292], the negative-log IC50 (pIC50) in the test with BA/F3 (insSVD) cells (Table 3a, cell survival, Cell Titer-Glo, with 10 ng/ml EGF, without IL-3, 48 h) was 8.39; in test [1] (setting [4]) it was 9.89; in test [2] (Table 2a, D770_N771insNPG) it was 9.47.
With `C=CC(=O)N1CCn2nc(-c3ccc(OC)cc3)c(-c3ccncc3)c2C1C` (racemic) [Example 241, 1-[(RS)-2-(4-methoxyphenyl)-4-methyl-3-(pyridin-4-yl)-6,7-dihydropyrazolo[1,5-a]pyrazin-5(4H)-yl]prop-2-en-1-one], the pIC50 in the test on BA/F3 (insSVD) cells (setting [3]) is 7.11; in test [1] (setting [4]), 8.41; in test [2] (Table 2a, D770_N771insNPG), 7.91.
For `Cc1c[nH]c2nccc(-c3c(-c4cccc(C#N)c4)nn4c3CN(C(=O)/C=C/CN(C)C)[C@@H](C)C4)c12` [Example 288, 3-[(6S)-5-[(2E)-4-(dimethylamino)but-2-enoyl]-6-methyl-3-(3-methyl-1H-pyrrolo[2,3-b]pyridin-4-yl)-4,5,6,7-tetrahydropyrazolo[1,5-a]pyrazin-2-yl]benzonitrile] the same measures were 6.74, 6.46 and 7.27.
For `C=CC(=O)N1Cc2c(-c3ccncc3)c(-c3cccc(C#N)c3)nn2C[C@@H]1C` [Example 127, 3-[(6S)-6-methyl-5-(prop-2-enoyl)-3-(pyridin-4-yl)-4,5,6,7-tetrahydropyrazolo[1,5-a]pyrazin-2-yl]benzonitrile] the same measures were 7.41, 7.60 and 8.25.
For the compound `C=CC(=O)N1CCn2nc(-c3ccc4sccc4c3)c(-c3ccncc3)c2C1C` (racemic) [Example 242, 1-[(RS)-2-(1-benzothiophen-5-yl)-4-methyl-3-(pyridin-4-yl)-6,7-dihydropyrazolo[1,5-a]pyrazin-5(4H)-yl]prop-2-en-1-one], the negative logarithm of the IC50 (pIC50) in the test with BA/F3 (insSVD) cells (setting [3]) is 7.32; in test [1] (setting [4]), 9.35; in test [2] (Table 2a, D770_N771insNPG), 9.08.
Turning to `CC#CC(=O)N1CCn2nc(-c3ccc(F)cc3)c(-c3ccncc3)c2C1` [Example 16, 1-[2-(4-fluorophenyl)-3-(pyridin-4-yl)-6,7-dihydropyrazolo[1,5-a]pyrazin-5(4H)-yl]but-2-yn-1-one], the negative logarithm of the IC50 (pIC50) with BA/F3 (insSVD) cells (setting [3]) is 6.11; in the test on BA/F3 (insSVD) cells (setting [5]), 6.11; in test [1] (setting [4]), 7.26; in test [1] (setting [6]), 7.26; in test [2] (Table 2a, D770_N771insNPG) it was 7.12; in test [2] (Table 2b (from US Priority Patent Application), mutEGFR D770_N771insNPG), 7.12.
